Test results as given in PubChem BioAssay AID1259407 (Chemical Carcinogenesis Research Information System (CCRIS), 2018).
Activity calls are given as the source filed them. No rule for the calls is given here.

System: CCRIS mutagenicity, Ames/micronucleus/aberration tests
Test: CCRIS mutagenicity studies
[1] = Test System: AMES SALMONELLA TYPHIMURIUM, Strain/Indicator: TA98, Metabolic Activation: NONE, Method: STANDARD PLATE
[2] = Test System: AMES SALMONELLA TYPHIMURIUM, Strain/Indicator: TA98, Metabolic Activation: RAT, LIVER, S-9, AROCLOR 1254, Method: STANDARD PLATE
[3] = Test System: AMES SALMONELLA TYPHIMURIUM, Strain/Indicator: TA100, Metabolic Activation: NONE, Method: STANDARD PLATE
[4] = Test System: AMES SALMONELLA TYPHIMURIUM, Strain/Indicator: TA100, Metabolic Activation: RAT, LIVER, S-9, AROCLOR 1254, Method: STANDARD PLATE
[5] = Test System: AMES SALMONELLA TYPHIMURIUM, Strain/Indicator: TA1537, Metabolic Activation: NONE, Method: STANDARD PLATE
[6] = Test System: AMES SALMONELLA TYPHIMURIUM, Strain/Indicator: TA1537, Metabolic Activation: RAT, LIVER, S-9, AROCLOR 1254, Method: STANDARD PLATE
[7] = Test System: AMES SALMONELLA TYPHIMURIUM, Strain/Indicator: TA98, Metabolic Activation: NONE, Method: PREINCUBATION

For `C1CCC2OCCOCCOCCOCCOC3CCCCC3OCCOCCOCCOCCOC2C1` (stereo not drawn), the mutagenic call [1] was “inactive; negative”, the mutagenic call [2] was “inactive; negative” and the mutagenic call [3] was “inactive; negative”. The mutagenic call [4] was “inactive; negative”, the mutagenic call (Test System: AMES SALMONELLA TYPHIMURIUM, Strain/Indicator: TA1530, Metabolic Activation: NONE, Method: STANDARD PLATE) was “inactive; negative” and the mutagenic call (Test System: AMES SALMONELLA TYPHIMURIUM, Strain/Indicator: TA1530, Metabolic Activation: RAT, LIVER, S-9, AROCLOR 1254, Method: STANDARD PLATE) was “inactive; negative”. For the same compound, the mutagenic call [5] was “inactive; negative” and the mutagenic call [6] was “inactive; negative”.

`Cc1cc(C)cc(NO)c1` was tested, and the mutagenic call (Test System: AMES SALMONELLA TYPHIMURIUM, Strain/Indicator: TA100, Metabolic Activation: RAT, LIVER, S-9, PCB, Method: PREINCUBATION) was “active; positive”.

`Nc1nc2ccccc2[nH]1` was tested, and the mutagenic call (Test System: AMES SALMONELLA TYPHIMURIUM, Strain/Indicator: TA97, Metabolic Activation: HAMSTER, LIVER, S-9, AROCLOR 1254 (10%), Method: PREINCUBATION) was “inactive; negative”, the mutagenic call (Test System: AMES SALMONELLA TYPHIMURIUM, Strain/Indicator: TA97, Metabolic Activation: HAMSTER, LIVER, S-9, AROCLOR 1254 (30%), Method: PREINCUBATION) was “inactive; negative” and the mutagenic call (Test System: AMES SALMONELLA TYPHIMURIUM, Strain/Indicator: TA97, Metabolic Activation: NONE, Method: PREINCUBATION) was “inactive; negative”. For the same compound, the mutagenic call (Test System: AMES SALMONELLA TYPHIMURIUM, Strain/Indicator: TA97, Metabolic Activation: RAT, LIVER, S-9, AROCLOR 1254 (10%), Method: PREINCUBATION) was “inactive; negative”, the mutagenic call (Test System: AMES SALMONELLA TYPHIMURIUM, Strain/Indicator: TA97, Metabolic Activation: RAT, LIVER, S-9, AROCLOR 1254 (30%), Method: PREINCUBATION) was “inactive; negative” and the mutagenic call (Test System: AMES SALMONELLA TYPHIMURIUM, Strain/Indicator: TA98, Metabolic Activation: HAMSTER, LIVER, S-9, AROCLOR 1254 (10%), Method: PREINCUBATION) was “inactive; negative”. For the same compound, the mutagenic call (Test System: AMES SALMONELLA TYPHIMURIUM, Strain/Indicator: TA98, Metabolic Activation: HAMSTER, LIVER, S-9, AROCLOR 1254 (30%), Method: PREINCUBATION) was “inactive; negative”, the mutagenic call [7] was “inactive; negative” and the mutagenic call (Test System: AMES SALMONELLA TYPHIMURIUM, Strain/Indicator: TA98, Metabolic Activation: RAT, LIVER, S-9, AROCLOR 1254 (10 OR 30%), Method: PREINCUBATION) was “inactive; negative”. For the same compound, the mutagenic call (Test System: AMES SALMONELLA TYPHIMURIUM, Strain/Indicator: TA98, Metabolic Activation: RAT, LIVER, S-9, AROCLOR 1254, Method: PREINCUBATION) was “active; positive”, the mutagenic call (Test System: AMES SALMONELLA TYPHIMURIUM, Strain/Indicator: TA100, Metabolic Activation: HAMSTER, LIVER, S-9, AROCLOR 1254 (10%), Method: PREINCUBATION) was “inactive; negative” and the mutagenic call (Test System: AMES SALMONELLA TYPHIMURIUM, Strain/Indicator: TA100, Metabolic Activation: HAMSTER, LIVER, S-9, AROCLOR 1254 (30%), Method: PREINCUBATION) was “inactive; negative”. The mutagenic call (Test System: AMES SALMONELLA TYPHIMURIUM, Strain/Indicator: TA100, Metabolic Activation: NONE, Method: PREINCUBATION) was “inactive; negative”, the mutagenic call (Test System: AMES SALMONELLA TYPHIMURIUM, Strain/Indicator: TA100, Metabolic Activation: RAT, LIVER, S-9, AROCLOR 1254 (5%), Method: PREINCUBATION) was “inactive; negative” and the mutagenic call (Test System: AMES SALMONELLA TYPHIMURIUM, Strain/Indicator: TA100, Metabolic Activation: RAT, LIVER, S-9, AROCLOR 1254 (10 OR 30%), Method: PREINCUBATION) was “inactive; negative”. The mutagenic call (Test System: AMES SALMONELLA TYPHIMURIUM, Strain/Indicator: TA100, Metabolic Activation: RAT, LIVER, S-9, AROCLOR 1254, Method: PREINCUBATION) was “inactive; negative”, the mutagenic call (Test System: AMES SALMONELLA TYPHIMURIUM, Strain/Indicator: TA1535, Metabolic Activation: HAMSTER, LIVER, S-9, AROCLOR 1254 (10%), Method: PREINCUBATION) was “inactive; negative” and the mutagenic call (Test System: AMES SALMONELLA TYPHIMURIUM, Strain/Indicator: TA1535, Metabolic Activation: HAMSTER, LIVER, S-9, AROCLOR 1254 (30%), Method: PREINCUBATION) was “inactive; negative”. The mutagenic call (Test System: AMES SALMONELLA TYPHIMURIUM, Strain/Indicator: TA1535, Metabolic Activation: NONE, Method: PREINCUBATION) was “inactive; negative”, the mutagenic call (Test System: AMES SALMONELLA TYPHIMURIUM, Strain/Indicator: TA1535, Metabolic Activation: RAT, LIVER, S-9, AROCLOR 1254 (10 OR 30%), Method: PREINCUBATION) was “inactive; negative” and the mutagenic call (Test System: AMES SALMONELLA TYPHIMURIUM, Strain/Indicator: TA1537, Metabolic Activation: HAMSTER, LIVER, S-9, AROCLOR 1254 (10%), Method: PREINCUBATION) was “inactive; negative”. For the same compound, the mutagenic call (Test System: AMES SALMONELLA TYPHIMURIUM, Strain/Indicator: TA1537, Metabolic Activation: HAMSTER, LIVER, S-9, AROCLOR 1254 (30%), Method: PREINCUBATION) was “inactive; negative”, the mutagenic call (Test System: AMES SALMONELLA TYPHIMURIUM, Strain/Indicator: TA1537, Metabolic Activation: NONE, Method: PREINCUBATION) was “inactive; negative” and the mutagenic call (Test System: AMES SALMONELLA TYPHIMURIUM, Strain/Indicator: TA1537, Metabolic Activation: RAT, LIVER, S-9, AROCLOR 1254 (10 OR 30%), Method: PREINCUBATION) was “inactive; negative”.

For `O=[N+]([O-])c1cc2cc3ccc4cccc5ccc(c2o1)c3c45`, the mutagenic call (Test System: AMES SALMONELLA TYPHIMURIUM, Strain/Indicator: TA98(NR), Metabolic Activation: NONE, Method: STANDARD PLATE) was “active; positive”, the mutagenic call (Test System: AMES SALMONELLA TYPHIMURIUM, Strain/Indicator: TA98(NR), Metabolic Activation: RAT, LIVER, S-9, AROCLOR 1254, Method: STANDARD PLATE) was “active; positive” and the mutagenic call [1] was “active; positive”. The mutagenic call [2] was “active; positive”.

For `CCCCN(CCCC)[N+](=O)[O-]`, the mutagenic call (Test System: E. COLI, Strain/Indicator: WP2 (HCR-), Metabolic Activation: RAT, LIVER, MICROSOMES, PHENOBARBITAL) was “active; positive”.

`CCCCCCCCCCCC(=O)OCCS(=O)(=O)O` was tested, and the mutagenic call (Test System: AMES SALMONELLA TYPHIMURIUM, Strain/Indicator: TA98, Metabolic Activation: HAMSTER, LIVER, S-9, AROCLOR 1254, Method: STANDARD PLATE) was “inactive; negative”, the mutagenic call [1] was “inactive; negative” and the mutagenic call [2] was “inactive; negative”. The mutagenic call (Test System: AMES SALMONELLA TYPHIMURIUM, Strain/Indicator: TA100, Metabolic Activation: HAMSTER, LIVER, S-9, AROCLOR 1254, Method: STANDARD PLATE) was “inactive; negative”, the mutagenic call [3] was “inactive; negative” and the mutagenic call [4] was “inactive; negative”. The mutagenic call (Test System: AMES SALMONELLA TYPHIMURIUM, Strain/Indicator: TA1535, Metabolic Activation: HAMSTER, LIVER, S-9, AROCLOR 1254, Method: STANDARD PLATE) was “inactive; negative”, the mutagenic call (Test System: AMES SALMONELLA TYPHIMURIUM, Strain/Indicator: TA1535, Metabolic Activation: NONE, Method: STANDARD PLATE) was “inactive; negative” and the mutagenic call (Test System: AMES SALMONELLA TYPHIMURIUM, Strain/Indicator: TA1535, Metabolic Activation: RAT, LIVER, S-9, AROCLOR 1254, Method: STANDARD PLATE) was “inactive; negative”. The mutagenic call (Test System: AMES SALMONELLA TYPHIMURIUM, Strain/Indicator: TA1537, Metabolic Activation: HAMSTER, LIVER, S-9, AROCLOR 1254, Method: STANDARD PLATE) was “inactive; negative”, the mutagenic call [5] was “inactive; negative” and the mutagenic call [6] was “inactive; negative”. The mutagenic call (Test System: MOUSE LYMPHOMA, Strain/Indicator: L5178Y (TK+/TK-), Metabolic Activation: NONE, Method: SUSPENSION/PLATE) was “inactive; negative. reevaluation of results: negative” and the mutagenic call (Test System: MOUSE LYMPHOMA, Strain/Indicator: L5178Y (TK+/TK-), Metabolic Activation: RAT, LIVER, S-9, AROCLOR 1254, Method: SUSPENSION/PLATE) was “inactive; negative. reevaluation of results: negative”.

In the case of `Cc1c([N+](=O)[O-])ccc2ccccc12`, the mutagenic call [7] is reported as “active; positive”.
